Results on 2 compounds are retold here after patent USRE35904E, “Method and probes for detecting nucleoside transporter and method for producing the probes” (Governors of the University of Alberta, priority 1995, dated 1998).

For experiment [1], the target named is T1, es nucleoside transporter (Mus musculus, UniProt Q9JIM1).
T1 construct: endogenous in cells; host or cells: L1210/B23.1 mouse leukemia cells
T1 sequence (Q9JIM1 1-460): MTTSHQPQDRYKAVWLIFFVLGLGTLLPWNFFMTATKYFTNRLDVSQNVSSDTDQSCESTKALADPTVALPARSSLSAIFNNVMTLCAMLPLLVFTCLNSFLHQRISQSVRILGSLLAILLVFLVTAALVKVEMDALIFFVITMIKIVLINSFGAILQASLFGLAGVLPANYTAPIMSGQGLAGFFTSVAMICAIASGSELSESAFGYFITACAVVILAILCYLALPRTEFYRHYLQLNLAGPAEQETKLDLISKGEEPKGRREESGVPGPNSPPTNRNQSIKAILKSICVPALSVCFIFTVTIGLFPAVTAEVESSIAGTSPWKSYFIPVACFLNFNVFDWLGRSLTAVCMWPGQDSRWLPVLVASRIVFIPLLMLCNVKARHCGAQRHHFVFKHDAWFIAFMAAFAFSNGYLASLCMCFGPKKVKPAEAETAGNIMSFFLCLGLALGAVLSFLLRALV
Kind of experiment: Concentration-dependence of fluorescent staining of L1210/B23.1 cells by flow cytometry. As to conditions: 40 min, 4° C., pH 8.0, autofluorescence 298. In kind it is cell-based. Here is the method: (b) Concentration-dependence of fluorescent staining of L 1210/23.1 cells by .[.5-(SAENTA-x2)-fluorescein.]. .Iadd.5-(SAENTA-X2)-fluorescein .Iaddend.was measured and the results are set out in Table 4.
Cells in PBS at pH 8.0 were incubated with the listed concentrations of the SAENTA-fluor probe at 4° C. for 40 min prior to flow cytometric analysis.

Experiment [2] concerns the target T1, es nucleoside transporter. Kind of experiment: Flow cytometric staining of L1210/B23.1 cells (es nucleoside transporter-expressing) by SAENTA-fluorescein probe. In kind it is cell-based. Here is the method:
(§1) Flow cytometric measurements of binding of .[.SAENTA-x2 -fluorescein.]. .Iadd.SAENTA-X2-fluorescein .Iaddend.prepared as in Example 3 was carried out as in Example 4 using two clonal lines of cultured mouse leukemia L 1210 cells, L 1210/B23.1 and L 1210/MA-27.1. L 1210/B23.1 expresses NBMPR binding sites and nuclesoside transporter activity whereas L 1210/MA-27.1 cells lack both of these features.
(§2) Staining conditions were chosen to minimise non-specific fluorescence signals from L 1210/MA-27.1 cells treated with the nucleoside.
(§3) Cells were exposed for 10 min at 4° C. to phosphate-buffered (pH 8.0) salts medium containing 40 nM .[.5(SAENTA-xx2)fluorescein.]. .Iadd.5-(SAENTA-X2)-fluorescein .Iaddend.prior to flow cytometric analysis in a BD FACSan instrument; 10^5 cells were analysed. Cells in replicate assay mixtures were also exposed for 5 min at 22° C. to medium containing 10 μM NBMPR and then for 10 min at 4° C. to medium containing both NBMPR and .[.5-SAENTA-x2)-fluorescein.]. .Iadd.5-(SAENTA-X2)-fluorescein.Iaddend..
(a) Clonal lines of mouse leukemia cells were exposed for 10 min at 4° C. to phosphate buffered (pH 8.0) saline containing […] .[.5-(SAENTA-x2)-fluorescein.]. .Iadd.5-(SAENTA-X2)-fluorescein .Iaddend.(prepared as in Example 3) prior to flow cytometric analysis in a BD FACScan instrument; 10^4 cells were analysed. Cells in replicate mixtures were also exposed for 5 min at 22° C. to medium containing 10 μM NBMPR and then for 10 min at 4° C. to medium containing both NBMPR and .[.5-(SAENTA-x2)-fluorescein.]. .Iadd.5-(SAENTA-X2)-fluorescein.Iaddend.. L 1210/B23.1 cells express the es nucleoside transport system whereas L 1210/MA-27.1 cells lack that activity.
(A flow cytometer gives signals particle by particle.)

The subject of a further experiment is L 1210/MA-27.1 cells. Put plainly: Flow cytometric staining of L1210/MA-27.1 cells (lacking es nucleoside transporter). In kind it is cell-based, mouse. Particulars: with or without NBMPR pretreatment, FIG. 9. Here is the method: as §1, §2, §3
(a) Clonal lines of mouse leukemia cells were exposed for 10 min at 4° C. to phosphate buffered (pH 8.0) saline containing […] .[.5-(SAENTA-x2)-fluorescein.]. .Iadd.5-(SAENTA-X2)-fluorescein .Iaddend.(prepared as in Example 3) prior to flow cytometric analysis in a BD FACScan instrument; 10^4 cells were analysed. […]

The target of experiment [3] is T1, es nucleoside transporter. Put plainly: [3H]NBMPR equilibrium binding to L1210/B23.1 cells and its inhibition by SAENTA-fluorescein probes. Particulars: 22°, replots of Kd(app)/Bmax versus [probe], read-out: Ki (mean ± S.D.).
Experiment [4] concerns es nucleoside transporter. Particulars: Gati et al. 1987; cited from earlier work.

For `O=C1OC2(c3ccc(O)cc3Oc3cc(O)ccc32)c2ccc(NC(=S)NCCSC[C@H]3O[C@@H](n4cnc5c(NCc6ccc([N+](=O)[O-])cc6)ncnc54)[C@H](O)[C@@H]3O)cc21` [5-(SAENTA-X2)-fluorescein, 5'-S-[2-(Fluorescein-5-thioureidyl)ethyl]-N^6-(4-nitrobenzyl)-5'-thioadenosine], the Fluorescence intensity in experiment [1] (5 nM) came out at 301 mean channel no; in experiment [1] (10 nM) it was 344 mean channel no; in experiment [1] (20 nM) it was 372 mean channel no; in experiment [1] (40 nM) it was 407 mean channel no; in experiment [1] (60 nM), 427 mean channel no; in experiment [1] (80 nM), 429 mean channel no. The Fluorescence intensity in experiment [1] (160 nM) stood at 497 mean channel no; in experiment [1] (320 nM) it was 601 mean channel no; in experiment [1] (640 nM) it was 691 mean channel no; in experiment [1] (1280 nM), 761 mean channel no. Besides, the “staining of L1210/B23.1 cells” value in experiment [2] (40 mM (so in the source), 10 min, 4° C., pH 8.0, FIG. 9) is “stained 1210/B23.1 cells”. The “specificity of staining of the cell lines” value in experiment [2] (L1210/B23.1 versus L1210/MA27.1, FIG. 9) is listed as “specific for the es nucleoside transporter system”. Further, the “fluorescence of L1210/MA27.1 cells after staining compared with autofluorescence” value with L 1210/MA-27.1 cells was “very similar”. Moreover, in experiment [3], the Ki stood at 17 ± 8 nM.

Regarding “[^125 I]Iodohydroxynitrobenzylthioinosine [[125I]Iodohydroxynitrobenzylthioinosine]”, the non-specific adsorption result in experiment [4] is reported as “high non-specific adsorption”.
